US9682928B2 (NeuroPro Therapeutics, Inc., priority 2009, dated 2017)

Target: T1, δ-containing GABAA receptors (Homo sapiens, UniProt O14764)
T1 construct: expressed in transfected cells; host or cells: HEK-293T, transient transfection
Experiment: Whole-cell patch clamp, transfected HEK-293T cells
Assay type: cell-based, rat or human
Settings: 10 μM NTP-2014
Protocol: The addition of GABA to […] activates the recombinant expressed GABAA receptors, creating an ion movement through the ion channel in the GABAA receptor. The electrical current generated by the movement of chloride ions into the cells can be quantified.
HEK-293T cells were transiently transfected with rat or human GABAA receptor subunits. Whole-cell patch clamp recording was performed at −50 mV unless otherwise indicated. Test compounds was diluted from a freshly made stock in DMSO, GABA was prepared from a frozen stock. For each experiment GABA or GABA+a test compound was applied for 5 seconds, and the electrical current generated by the movement of chloride ions into the cells was measured and recorded as a trace of current versus time.

T1 sequence (O14764 25-452): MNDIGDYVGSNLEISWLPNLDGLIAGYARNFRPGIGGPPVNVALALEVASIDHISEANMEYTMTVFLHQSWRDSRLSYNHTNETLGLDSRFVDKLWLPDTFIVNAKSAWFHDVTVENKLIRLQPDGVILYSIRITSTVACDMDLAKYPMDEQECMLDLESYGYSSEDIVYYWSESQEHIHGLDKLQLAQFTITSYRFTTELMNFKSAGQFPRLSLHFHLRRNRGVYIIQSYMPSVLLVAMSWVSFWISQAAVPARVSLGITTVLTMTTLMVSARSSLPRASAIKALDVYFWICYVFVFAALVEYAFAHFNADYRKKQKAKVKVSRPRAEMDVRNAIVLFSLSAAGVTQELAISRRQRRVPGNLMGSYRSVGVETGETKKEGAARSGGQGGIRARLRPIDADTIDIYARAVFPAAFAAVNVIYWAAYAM

## CCCCN(CCCC)c1cc(C(=O)O)cc(S(N)(=O)=O)c1Oc1ccccc1 [NTP-2014, 3-Aminosulfonyl-5-N,N-dibutylamino-4-phenoxybenzoic acid]
  Effect on δ-containing receptors: unaffected
